Results: patent publication US20160130234A1, “PHARMACEUTICAL COMPOSITIONS BASED ON PHOTOCHEMICALLY STABLE SILVER COMPLEXES, CHLOREXIDINE AND CATIONIC SURFACTANTS” (PAVIA FARMACEUTICI S.R.L., priority 2013, published 2016)

Legend:
[1] = system: Staphylococcus aureus (ATCC-6538) and Pseudomonas aeruginosa (ATCC-15442); assay: quantitative suspension test for bactericidal activity, UNI EN 1272:2009; type: cell-based
Protocol: The bactericidal activity was tested on aqueous solutions of the complex of Example 1, (i.e. where the ligand L coordinated to the silver ion is the 2-Mercapto-5-benzimidazolesulfonic acid sodium salt).
The bactericidal activity tests were carried out according to UNI EN 1272:2009 and UNI EN 13697:2001 standards, which makes reference to chemical disinfectants and antiseptics, by using the following test organism: Staphylococcus aureus (ATCC-6538), as representative of Gram-positive bacteria and Pseudomonas aeruginosa (ATCC-15442), as representative of Gram-negative bacteria.

sepsis = details: burns treated with silver nitrate; decreased from 60%; cited from earlier work
[2] = system: Staphylococcus epidermidis; details: cited from earlier work

Molecule	antimicrobial activity after exposure to ambient light ([1]; after exposure to ambient light, reduction of Ag^+ to Ag^∘)	reduction of bacterial count compared with the silver complex ([1]; solution of comparable concentration)	number of deaths that were a result of sepsis (sepsis) [%]	development of resistance by Staphylococcus epidermidis [2]
O=[N+]([O-])[O-].[Ag+] [Silver Nitrate]	lose the antimicrobial activity	analogously	28	
[H]/N=C(\N/C(=N/[H])NCCCCCCNC(=N)NC(=N)Nc1ccc(Cl)cc1)Nc1ccc(Cl)cc1 [chlorhexidine]				no evidence of resistance was observed
polyhexametylene biguanide				no evidence of resistance was observed
